pIC50: −log10 of the molar value.
How the values were obtained:
[1] = molecular target: T1, Mitogen-activated protein kinase kinase kinase 7 (Homo sapiens) (UniProt O43318); test: Inhibition of TAK1 (unknown origin) at 1 uM by LanthaScreen Eu kinase binding assay relative to control
T1 sequence (whole entry): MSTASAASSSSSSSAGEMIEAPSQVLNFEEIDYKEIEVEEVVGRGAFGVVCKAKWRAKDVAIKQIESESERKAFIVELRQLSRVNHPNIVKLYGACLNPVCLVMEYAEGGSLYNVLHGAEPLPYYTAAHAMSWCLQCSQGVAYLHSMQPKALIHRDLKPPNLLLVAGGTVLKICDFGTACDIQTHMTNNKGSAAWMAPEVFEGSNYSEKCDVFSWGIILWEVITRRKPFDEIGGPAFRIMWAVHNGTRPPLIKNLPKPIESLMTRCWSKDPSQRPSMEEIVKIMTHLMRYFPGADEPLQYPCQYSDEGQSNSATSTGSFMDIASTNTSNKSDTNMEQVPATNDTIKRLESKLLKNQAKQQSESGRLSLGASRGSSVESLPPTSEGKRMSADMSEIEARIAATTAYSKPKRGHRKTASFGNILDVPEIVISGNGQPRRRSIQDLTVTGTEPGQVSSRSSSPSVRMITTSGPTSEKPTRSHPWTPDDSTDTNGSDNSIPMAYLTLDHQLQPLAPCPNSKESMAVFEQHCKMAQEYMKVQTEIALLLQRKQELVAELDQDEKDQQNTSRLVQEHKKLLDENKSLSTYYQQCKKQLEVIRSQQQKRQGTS

[2] = molecular target: T1, Mitogen-activated protein kinase kinase kinase 7 (Homo sapiens); test: Inhibition of TAK1 (unknown origin) at 0.1 uM by LanthaScreen Eu kinase binding assay relative to control
TAK1/TAB1 = TAK1/TAB1 (Homo sapiens, UniProt O43318); test: Inhibition of N-terminal His-tagged human TAK1 (1 to 303 amino acids)/human TAB1 (437 to 504 amino acids) expressed in baculovirus expression system using fluorescence-labeled substrate by off-chip mobility shift assay
SW-620 = test: Growth inhibition of human SW620 cells after 96 hrs by SRB assay; format: functional, cell-based; conditions: SW-620, 96 h
[3] = Stability in human liver microsomes assessed as parent compound remaining after 60 mins in presence of NADPH by HPLC analysis; format: ADME, Microsome; conditions: read-out: Stability
[4] = Stability in mouse liver microsomes assessed as parent compound remaining after 60 mins in presence of NADPH by HPLC analysis; format: ADME, Microsome; conditions: read-out: Stability
[5] = Stability in human plasma assessed as parent compound remaining after 6 hrs by LC-MS/MS analysis; format: ADME, cell-free; conditions: read-out: Stability
[6] = Stability in mouse plasma assessed as parent compound remaining after 6 hrs by LC-MS/MS analysis; format: ADME, cell-free; conditions: read-out: Stability
[7] = AUC (0 to 7 hrs) in ICR mouse at 10 mg/kg, po administered as single dose or 3 mg/kg, iv by LC-MS/MS analysis; format: ADME, organism-based; conditions: in vivo
[8] = Cmax in ICR mouse at 10 mg/kg, po administered as single dose or 3 mg/kg, iv by LC-MS/MS analysis; format: ADME, organism-based; conditions: in vivo
[9] = Half life in ICR mouse at 10 mg/kg, po administered as single dose or 3 mg/kg, iv by LC-MS/MS analysis; format: ADME, organism-based; conditions: in vivo
[10] = Oral bioavailability in ICR mouse at 10 mg/kg administered as single dose by LC-MS/MS analysis; format: ADME, organism-based; conditions: in vivo

TAK1/TAB1, sequence (Q15750 whole entry, one chain of several, the tested form may be a part): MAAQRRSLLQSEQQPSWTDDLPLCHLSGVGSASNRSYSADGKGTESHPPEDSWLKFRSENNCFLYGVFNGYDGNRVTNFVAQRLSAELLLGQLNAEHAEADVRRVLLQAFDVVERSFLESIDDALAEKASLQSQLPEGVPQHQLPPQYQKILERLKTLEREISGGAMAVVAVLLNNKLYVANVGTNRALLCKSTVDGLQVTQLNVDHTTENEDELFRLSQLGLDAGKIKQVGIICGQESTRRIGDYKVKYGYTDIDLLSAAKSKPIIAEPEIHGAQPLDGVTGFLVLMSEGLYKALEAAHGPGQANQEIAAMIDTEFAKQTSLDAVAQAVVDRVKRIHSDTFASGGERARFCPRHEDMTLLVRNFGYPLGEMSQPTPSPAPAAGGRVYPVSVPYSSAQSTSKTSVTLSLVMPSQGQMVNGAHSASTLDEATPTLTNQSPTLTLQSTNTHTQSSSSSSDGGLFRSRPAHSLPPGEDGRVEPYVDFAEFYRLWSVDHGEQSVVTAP

Row | inhibition [1] | inhibition [2] | SMILES | also measured
1 | 0% | 0% | Cc1ccc(C(=O)Nc2cc(C(C)(C)C)nn2-c2ccccc2)cc1Oc1cnc(NC2CC2)c2nccn12 | 
2 | 84% | 19% | Cc1cc(NC(=O)Nc2cc(C(C)(C)C)nn2-c2ccc(C#N)cc2)ccc1-c1cnc(NC2CC2)c2nccn12 | 
3 | 97% | 49% | Cc1cc(NC(=O)Nc2cc(C(C)(C)C)nn2-c2cccc(C#N)c2)ccc1-c1cnc(NC2CC2)c2nccn12 | pIC50 (TAK1/TAB1): 7.39; pIC50 (SW-620): 6.77; remaining at 1 h [3]: 33%; remaining at 1 h [4]: 37%; remaining at 6 h [5]: 100%; remaining at 6 h [6]: 88%; AUC(0-t) [7]: 360 ng·h/mL; Cmax [8]: 231 ng/mL; half-life [9]: 2.4 h; bioavailability [10]: 3.1%
4 | 89% | 43% | Cc1cc(NC(=O)Nc2cc(C(C)(C)C)nn2-c2cccnc2)ccc1-c1cnc(NC2CC2)c2nccn12 | 
5 | 90% | 26% | Cc1cc(NC(=O)Nc2cc(C(C)(C)C)nn2-c2cccc([N+](=O)[O-])c2)ccc1-c1cnc(NC2CC2)c2ncnn12 | 

More lines, now with the values behind:

Row | SMILES | inhibition [1] | inhibition [2] | also measured
6 | Cc1cc(NC(=O)Nc2cc(C(C)(C)C)nn2-c2ccccc2)ccc1Oc1cnc(NC2CC2)c2nccn12 | 90% | 20% | 
7 | Cc1cc(NC(=O)Nc2cc(C(C)(C)C)nn2-c2ccccc2)ccc1-c1cnc(NC2CC2)c2ncnn12 | 80% | 24% | 
8 | Cc1cc(NC(=O)Nc2cc(C(C)(C)C)nn2-c2cccc(C#N)c2)ccc1Oc1cnc(NC2CC2)c2nccn12 | 76% | 0% | 
9 | Cc1cc(NC(=O)Nc2cc(C(C)(C)C)nn2-c2ccccc2)ccc1Oc1cn2ccnc2c(NC2CC2)n1 | 30% | 0% | 

Source: ChEMBL document CHEMBL4411291, “Synthesis and anti-tumor activity of imidazopyrazines as TAK1 inhibitors” (Eur J Med Chem, 2019)
